Data taken from the METLIN SMRT retention time set (Domingo-Almenara et al. 2019).

Test: gradient 5% acetonitrile 3 min, to 50% in 2 min, to 85% in 15 min, held 3 min, 100 µL/min
Details: column: Zorbax Extend-C18 2.1 x 50 mm; eluents: water / acetonitrile, 0.1% formic acid
In short: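 Data were gathered over 3 months by HPLC coupled to a quadrupole time-of-flight mass spectrometer, operated in positive and negative ionization mode. Mixtures of ~100 pure standards ran on a Zorbax Extend-C18 column (2.1 × 50 mm, 1.8 μm) at 100 μL/min, with water and acetonitrile each containing 0.1% formic acid and dead and dwell volumes of 40 μL and 900 μL. Retention time was read from adduct peaks picked by computer and checked manually.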

Row | RP-LC retention time | Structure (SMILES)
1 | 642 s | COc1cc(OC)c(OC)cc1CN1CCC(C)(c2noc(C3CCOCC3)n2)CC1
2 | 546 s | Cc1noc([C@@H]2CN(Cc3cc(F)cc(F)c3)C[C@H]2CO)n1
3 | 1240 s | CCOc1ccccc1-c1csc(NC(=O)Cc2csc(-c3ccccc3)n2)n1
4 | 962 s | O=C(NCCC1=CCCCC1)c1nc(-c2ccnc(N3CCOCC3)c2)no1
5 | 718 s | O=C(NC1CC1)c1ccc(OCC2CCCN(C(=O)C3CC3)C2)cc1 (stereo not given)
6 | 987 s | CCOc1cccc(CNc2cc(-n3nc(C)cc3C)ncn2)c1
7 | 963 s | Cc1sc(-c2nnc(C3CC3)o2)cc1NC(=O)c1ccc(N(C)C)cc1
8 | 637 s | Cc1cc(-c2nnc(-c3ccco3)o2)c(C)n1CC(=O)NCc1ccc(Cl)cc1
9 | 912 s | O=C(Cn1cccc(-c2nc(-c3ccc(F)cc3)no2)c1=O)Nc1ccccc1Br
10 | 753 s | O=C(c1ccco1)N1CCN(C(=O)c2sc3ncccc3c2-n2cccc2)CC1
11 | 942 s | Cc1ccc(C)c(N2CCN(c3ccnc(SCC(=O)Nc4c(C)cccc4Cl)n3)CC2)c1
12 | 1020 s | O=C(CSc1ncnc2c1cnn2-c1ccc(F)cc1)Nc1nc2ccccc2s1
13 | 973 s | Cc1ccc(CCC(=O)Nc2nc(-c3ccc4c(c3)NC(=O)C(C)O4)cs2)cc1 (stereo not given)
14 | 1210 s | CCCc1ccc(-c2csc(NC(=O)c3ccc(C)o3)n2)cc1
15 | 1030 s | CCCn1c(=O)c2cc(C(=O)NCc3ccc(C)cc3)nn2c2ccccc21
16 | 773 s | O=C(c1cccc(Br)c1)N1CCC2(C1)C(=O)Nc1ccccc12 (stereo not given)
17 | 998 s | Cc1nc(-c2ccccc2)cc2nn(CC(=O)Nc3cc(F)cc(F)c3)c(=O)n12
18 | 650 s | COCc1nncn1C1CCN(C(=O)C2(c3ccccc3)CC2)CC1
19 | 762 s | Cc1cccc(NC(=O)CN2C(=O)CCS(=O)(=O)c3ccccc32)c1
20 | 926 s | CCCn1cc(S(=O)(=O)Nc2ccc(F)cc2C)c2cccnc21
21 | 910 s | Cc1ccc(CNC(=O)C2(C)CCCN(C(=O)NCCC(C)C)C2)cc1 (stereo not given)
22 | 1080 s | COc1cc(OC)cc(-c2nnc(Cc3nc(-c4cccc(C)c4)no3)o2)c1

Row | RP-LC retention time | Structure (SMILES)
23 | 1170 s | O=S(=O)(c1cccc(Cl)c1)N1CCc2nc(-c3ccccc3)ncc2C1
24 | 1140 s | C=C1CC2(OC1=O)c1ccccc1CCc1ccccc12
25 | 917 s | O=C(Nc1ccc(F)c(Cl)c1)C1CCCN(c2ncnc3c2nc2n3CCCCC2)C1 (stereo not given)
26 | 934 s | CCCCNC(=O)C(CC)n1nc(C)c2nn(-c3ccccc3)c(C)c2c1=O (stereo not given)
27 | 726 s | Cc1ccc(CCC(=O)Nc2c(C)cccc2C(=O)O)o1
28 | 878 s | CCOC(=O)c1ccc(N2CC3=C(C2=O)C(c2ccc(OC)cc2)NC(=O)N3C)cc1 (stereo not given)
29 | 983 s | Cc1noc(-c2ccc(NC(=O)C3c4ccccc4Oc4ccccc43)cc2)n1
30 | 763 s | COc1ccc(NC(=O)N2C[C@@H](F)C[C@H]2C(=O)N2CCc3ccccc3C2)cc1
31 | 1370 s | Cc1ccc(-c2nc(-c3ccc(-n4cccn4)nc3)no2)cc1F
32 | 687 s | COc1ccc(S(=O)(=O)NCC2Cn3cccc3C(=O)N2C)cc1 (stereo not given)
33 | 810 s | COc1ccc(CNC(=O)c2nc3ccccn3c2-c2ccsc2)cc1
34 | 1150 s | Cc1nn(-c2nc(-c3ccc(F)cc3)cs2)c(C)c1CC(=O)Nc1ccccc1
35 | 742 s | Cc1c(F)cccc1NC(=O)N(C)CC1CCOCC1
36 | 591 s | CNC(=O)c1cc(-c2ccccc2)n(C)c1C
37 | 874 s | CCCS(=O)(=O)N1CCCN(C2=NS(=O)(=O)C(c3ccc(C)cc3)=C2C)CC1
38 | 807 s | COc1ccc(CN2N=C(C(=O)N3CCOCC3)S(=O)(=O)c3ccccc32)cc1F
39 | 704 s | CCOc1ccc(CNC(=O)C2CCN(S(=O)(=O)c3cn(C(C)C)cn3)CC2)cc1OC
40 | 702 s | Cc1nn(C(C)C(=O)NCCCN2CCCCCC2)c(=O)c2c1sc1ccccc12 (stereo not given)
41 | 1280 s | Cc1nc(-c2ccccc2)sc1C(=O)Nc1nc(-c2ccc(F)cc2)c(C)s1
42 | 841 s | O=C(N1c2ccccc2CC1c1nnc(C2CCOCC2)o1)C1(c2ccccc2)CC1 (stereo not given)
43 | 545 s | O=C(O)[C@@H]1OCCN(C2CC2)[C@H]1c1ccccc1
44 | 1150 s | COc1ccc(-c2noc(-c3ccc(N4CCN(c5ncccn5)CC4)nc3)n2)cc1

Row | RP-LC retention time | Structure (SMILES)
45 | 1050 s | Cc1ccccc1CN1N=C(C(=O)N2CCC(C)CC2)S(=O)(=O)c2ccccc21
46 | 688 s | COc1cccc(C2(C(N)=O)CC2)c1
47 | 789 s | Cn1cccc1C(=O)Nc1cnn(-c2ncc(N3CCCC3)cn2)c1
48 | 595 s | Cc1ccc2c(Nc3ccc(CC(=O)O)cc3)c(C(=O)N3CCCCCC3)cnc2n1
49 | 1000 s | O=c1c2cc(Cl)ccc2oc2cc(O)cc(O)c12
50 | 613 s | CC(C)Cn1c(=O)c(C(=O)NCc2cccnc2)nc2cccnc21
51 | 1030 s | CCc1nc(-c2csc(S(=O)(=O)N3CCCC(C(=O)NCc4ccc(Cl)cc4)C3)c2)no1 (stereo not given)
52 | 1140 s | CCOc1ccccc1C(=O)Nc1cccn2nc(CC)nc12
53 | 722 s | O=C(Cn1nc2c(N3CCSCC3)nccn2c1=O)NC1CCCC1
54 | 561 s | COc1cccc(CN2CCCn3nc(-c4cccc(OC)c4)cc3C2)c1
55 | 666 s | CCc1nnc([C@@H]2CC(F)(F)CN2C(=O)CCn2nc(C)cc2C)o1
56 | 698 s | COc1ccc(-c2ccc3c(N4CCOCC4)nc(N4C[C@@H](C)O[C@@H](C)C4)nc3n2)cc1CO
57 | 926 s | COc1ccc(CNC(=O)c2cc3c(s2)N(C)CCC3)c(OC)c1
58 | 1110 s | Cc1ccccc1NC(=O)Cn1nc(N2CCC(C)CC2)c2ccccc2c1=O
59 | 725 s | CCn1ccc(C(=O)N2CCC3(CC2)C(=O)N(C)c2ccccc23)n1
60 | 705 s | CCOc1ccccc1NC(=O)CSc1ccc(N2CCCC(C(=O)NC3CC3)C2)nn1 (stereo not given)
61 | 793 s | Cc1nc(SCC(=O)Nc2nc3ccccc3s2)c2c(=O)n(C)c(=O)n(C)c2n1
62 | 1070 s | O=C(Nc1cnc(-c2ccc(Cl)cc2)nc1)c1cncc(Br)c1
63 | 600 s | CC(C)n1cnc2cc(CNC(=O)Cc3cccs3)ccc21
64 | 689 s | CCCN1CCN(C(=O)C(C)C2CCN(S(=O)(=O)c3ccc(Br)s3)CC2)CC1 (stereo not given)
65 | 955 s | Cc1cc(C(=O)N2CCCCC2)c2c(=O)n(Cc3nc(-c4cccs4)oc3C)c(=O)n(C)c2n1
66 | 1100 s | O=C(Cn1cccc1-c1nc(-c2ccc(Cl)cc2)cs1)N1CCN(c2ncccn2)CC1

Row | RP-LC retention time | Structure (SMILES)
67 | 673 s | O=C(NC1CC1)c1ccc2c(c1)CCN2C(=O)C1CC1
68 | 769 s | COc1ccc(CNC(=O)N(Cc2ccsc2)C2CC2)cc1OC
69 | 638 s | O=C(Nc1c(-c2ccccc2)nc2ccccn12)c1ccccc1F
70 | 767 s | Cc1noc(C)c1C1CCCN1C(=O)c1cccc(C#N)c1 (stereo not given)
71 | 718 s | Cc1cccc(NC(=O)N2CCC(OC3CCN(S(C)(=O)=O)CC3)CC2)c1C
72 | 1120 s | Cc1cc(C)c(NC(=O)Cn2cccc2-c2nc(-c3ccc4c(c3)OCO4)no2)c(C)c1
73 | 1140 s | COc1ccccc1-c1nc(Cn2nnc(-c3nc(-c4ccccc4)no3)c2C)c(C)o1
74 | 1060 s | Cc1ccc(N2CC(c3noc(-c4ccc(F)cc4Cl)n3)CC2=O)cc1 (stereo not given)
75 | 744 s | COc1ccc(S(=O)(=O)N2CCCC(c3nnnn3C)C2)cc1 (stereo not given)
76 | 890 s | CC(C)n1cnc(S(=O)(=O)N2CCCC(C(=O)Nc3cccc(C(F)(F)F)c3)C2)c1 (stereo not given)
77 | 750 s | CCCN(CC1CCOC1)C(=O)Nc1ccc(OCC)cc1 (stereo not given)
78 | 573 s | CC(NC(=O)c1csc(-c2ccc(N3CCCC3)nc2)n1)c1ccccn1 (stereo not given)
79 | 804 s | COc1nccnc1NC1CCN(C(=O)c2ccc(C#N)cc2)CC1
80 | 786 s | COc1ccc(-c2noc(C3CC(=O)N(c4ccc(OC)c(OC)c4)C3)n2)c(OC)c1 (stereo not given)
81 | 577 s | COC(=O)c1c(C)[nH]c(C(=O)N2CCCC(C(=O)NCc3cccnc3)C2)c1C (stereo not given)
82 | 641 s | COC(=O)c1cccc(NS(=O)(=O)c2cc3n(c2)CCCNC3=O)c1
83 | 664 s | Cc1nc(C)c(C(=O)N2CCC(Cc3noc(C4CC4)n3)C2)s1 (stereo not given)
84 | 1250 s | COc1cccc(Cn2c(=O)c3cnc(-c4ccc(C)cc4)nc3n(C)c2=O)c1
85 | 617 s | Cc1ccc(NC(=O)Cn2c(N)nc(C)cc2=O)c(C)c1
86 | 1050 s | O=C(c1ccc(Cl)cc1)N1CCCCC(Sc2ncnc3sccc23)C1=O (stereo not given)
87 | 569 s | Cc1oc(-c2[nH]ncc2C(=O)N2CCCC2)cc1S(=O)(=O)NCCCN(C)C
88 | 864 s | CCn1c(=O)c(N2CCC(C(=O)NCCc3c[nH]c4ccc(OC)cc34)CC2)nc2cccnc21

Row | Structure (SMILES) | RP-LC retention time
89 | CCn1cc(C(=O)NCc2ccccc2)c2cccnc21 | 782 s
90 | CCn1cc(C(=O)Nc2cc(Cl)ccc2C)c2cccnc21 | 922 s
